Holding throughout (type): in vivo
One test concerns Chilo suppressalis. The test can be described thus: Example B1: activity against Chilo suppressalis (striped rice stemborer), artificial diet. The settings on record: 144 h, 200 ppm, L2 larvae, 6 days after infestation, read-out: control (at least one of mortality, anti-feedant effect, growth inhibition). As for the experimental part: 24-well microtiter plates with artificial diet were treated with aqueous test solutions prepared from 10′000 ppm DMSO stock solutions by pipetting. After drying, the plates were infested with L2 larvae (6-8 per well). The samples were assessed for mortality, anti-feeding effect, and growth inhibition in comparison to untreated samples 6 days after infestation. Control of Chilo suppressalis by a test sample is given when at least one of the categories mortality, anti-feedant effect, and growth inhibition is higher than the untreated sample.

For another test, the system named is Diabrotica balteata. Nature of the test: Example B2: activity against Diabrotica balteata (corn root worm), maize sprouts. Particulars: 96 h, L2 larvae, 4 days after infestation, read-out: effect in at least one of the two categories (mortality or growth inhibition). As for the experimental part: Maize sprouts placed onto an agar layer in 24-well microtiter plates were treated with aqueous test solutions prepared from 10′000 ppm DMSO stock solutions by spraying. After drying, the plates were infested with L2 larvae (6 to 10 per well). The samples were assessed for mortality and growth inhibition in comparison to untreated samples 4 days after infestation. The following compounds gave an effect of at least 80% in at least one of the two categories (mortality or growth inhibition) at an application rate of 200 ppm: P1, P2, P3, P4, P5, P7, P8, P9, P10, P11, P12, P13, P14, P15, P16, P17, P18, P19, P20, P21, P22, P23, P24, P25, P26, P27, P28, P29, P30, P31, P33, P34, P35, P36, P37, P38, P39, P40, P41, P42, P43, P45, P46, P47, P48, P49, P50, P51, P52, P53, P55, P57, P58, P59, P60, P61, P62, P63, P64, P65, P66, P67, P69, P71, P75, P81, P82, P83.

The next test deals with Myzus persicae. Nature of the test: Example B4: activity against Myzus persicae (green peach aphid), intrinsic activity. The settings on record: 120 h, test rate 12 ppm, 5 days after infestation. As for the experimental part:
Test compounds prepared from 10′000 ppm DMSO stock solutions were applied by pipette into 24-well microtiter plates and mixed with sucrose solution. The plates were closed with a stretched Parafilm. A plastic stencil with 24 holes was placed onto the plate and infested pea seedlings were placed directly on the Parafilm. The infested plate was closed with a gel blotting paper and another plastic stencil and then turned upside down. The samples were assessed for mortality 5 days after infestation.

In another test the test system is Plutella xylostella. Nature of the test: Example B5: activity against Plutella xylostella (diamond back moth), artificial diet, eggs. The settings on record: 192 h, 8 days after infestation, read-out: effect in at least one of the two categories (mortality or growth inhibition). Here is the method: 24-well microtiter plates with artificial diet were treated with aqueous test solutions prepared from 10′000 ppm DMSO stock solutions by pipetting. After drying, Plutella eggs were pipetted through a plastic stencil onto a gel blotting paper and the plate was closed with it. The samples were assessed for mortality and growth inhibition in comparison to untreated samples 8 days after infestation. The following compounds gave an effect of at least 80% in at least one of the two categories (mortality or growth inhibition) at an application rate of 200 ppm: P1, P2, P3, P4, P5, P6, P7, P8, P9, P10, P11, P12, P13, P14, P15, P16, P17, P18, P19, P20, P21, P22, P23, P24, P25, P26, P27, P28, P29, P30, P31, P32, P33, P34, P35, P36, P37, P38, P39, P40, P41, P42, P43, P44, P45, P46, P47, P48, P49, P50, P51, P52, P53, P54, P55, P57, P58, P59, P60, P61, P62, P63, P64, P65, P66, P67, P69, P70, P71, P72, P73, P74, P75, P77, P78, P81, P82, P83.

The next test has as its system Spodoptera littoralis. Nature of the test: Example B6: activity against Spodoptera littoralis (Egyptian cotton leaf worm), cotton leaf discs. Particulars: foliar; for percent control (mortality, anti-feedant effect or growth inhibition) at 200 ppm: 72 h, L1 larvae, 3 days after infestation, read-out: control (at least one of mortality, anti-feedant effect, growth inhibition). As for the experimental part:
Cotton leaf discs were placed onto agar in 24-well microtiter plates and sprayed with aqueous test solutions prepared from 10′000 ppm DMSO stock solutions. After drying the leaf discs were infested with five L1 larvae. The samples were assessed for mortality, anti-feeding effect, and growth inhibition in comparison to untreated samples 3 days after infestation. Control of Spodoptera littoralis by a test sample is given when at least one of the categories mortality, anti-feedant effect, and growth inhibition is higher than the untreated sample.

The mortality is the percentage killed. The low end stands for more survivors, the high end for fewer survivors.

Turning to `C[C@H](Nc1ncnc2c(I)cc(Cl)cc12)c1ncnn1-c1cc(C#N)ncn1` [Compound P40, 6-[5-[(1S)-1-[(6-chloro-8-iodo-quinazolin-4-yl)amino]ethyl]-1,2,4-triazol-1-yl]pyrimidine-4-carbonitrile], the percent control (mortality, anti-feedant effect or growth inhibition) at 200 ppm with Chilo suppressalis and in the test on Spodoptera littoralis was not below 80% in each case. Moreover, the percent effect (mortality or growth inhibition) at 200 ppm in the test on Diabrotica balteata and with Plutella xylostella was not below 80% each time. For the same compound, the mortality at 12 ppm in the test with Myzus persicae is not below 80%.
`C[C@H](Nc1ncnc2c(C(F)(F)F)cc(Cl)cc12)c1ncnn1-c1cc(C(=O)NC2CC2)ncn1` [Compound P23, 6-[5-[(1S)-1-[[6-chloro-8-(trifluoromethyl)quinazolin-4-yl]amino]ethyl]-1,2,4-triazol-1-yl]-N-cyclopropyl-pyrimidine-4-carboxamide]: the percent control (mortality, anti-feedant effect or growth inhibition) at 200 ppm with Chilo suppressalis and with Spodoptera littoralis was not below 80% in each case. Moreover, the percent effect (mortality or growth inhibition) at 200 ppm in the test with Diabrotica balteata and with Plutella xylostella was not below 80% in each case. The mortality at 12 ppm in the test on Myzus persicae is not below 80%.
On to `C[C@H](Nc1ncnc2c(Cl)cc(C(F)(F)F)cc12)c1ncnn1-c1cnc(C(=O)NCC#N)cn1` [Compound P69, 5-[5-[(1S)-1-[[8-chloro-6-(trifluoromethyl)quinazolin-4-yl]amino]ethyl]-1,2,4-triazol-1-yl]-N-(cyanomethyl)pyrazine-2-carboxamide], for which the percent control (mortality, anti-feedant effect or growth inhibition) at 200 ppm with Chilo suppressalis and in the test on Spodoptera littoralis was not below 80% each time. For the same compound, the percent effect (mortality or growth inhibition) at 200 ppm in the test with Diabrotica balteata and in the test on Plutella xylostella was not below 80% throughout. Moreover, the mortality at 12 ppm in the test on Myzus persicae is not below 80%.
Turning to `C[C@@H](c1ncnn1-c1cc(C(=O)N(C)C)ncn1)N(C)c1ncnc2c(I)cc(Cl)cc12` [Compound P66, 6-[5-[(1S)-1-[(6-chloro-8-iodo-quinazolin-4-yl)-methyl-amino]ethyl]-1,2,4-triazol-1-yl]-N,N-dimethyl-pyrimidine-4-carboxamide], the percent control (mortality, anti-feedant effect or growth inhibition) at 200 ppm with Chilo suppressalis and with Spodoptera littoralis was not below 80% throughout. Further, the percent effect (mortality or growth inhibition) at 200 ppm in the test with Diabrotica balteata and in the test with Plutella xylostella was not below 80% in each case. In the test with Myzus persicae, this compound had a mortality at 12 ppm not below 80%.
In the case of `CNC(=O)c1cc(-n2ncnc2[C@H](C)Nc2ncnc3c(Cl)cc(I)cc23)ncn1` [Compound P4, 6-[5-[(1S)-1-[(8-chloro-6-iodo-quinazolin-4-yl)amino]ethyl]-1,2,4-triazol-1-yl]-N-methyl-pyrimidine-4-carboxamide], the percent control (mortality, anti-feedant effect or growth inhibition) at 200 ppm in the test with Chilo suppressalis and in the test with Spodoptera littoralis was not below 80% in each case. Besides, the percent effect (mortality or growth inhibition) at 200 ppm with Diabrotica balteata and in the test with Plutella xylostella was not below 80% in each case. In the test with Myzus persicae, this compound displayed a mortality at 12 ppm not below 80%.
As for `C[C@H](Nc1ncnc2c(Br)cc(Br)cc12)c1ncnn1-c1cnc(C(=O)NCC#N)cn1` [Compound P72, N-(cyanomethyl)-5-[5-[(1S)-1-[(6,8-dibromoquinazolin-4-yl)amino]ethyl]-1,2,4-triazol-1-yl]pyrazine-2-carboxamide], the percent control (mortality, anti-feedant effect or growth inhibition) at 200 ppm with Chilo suppressalis and in the test with Spodoptera littoralis was not below 80% throughout. Also, the mortality at 12 ppm in the test on Myzus persicae was not below 80%. In addition, the percent effect (mortality or growth inhibition) at 200 ppm with Plutella xylostella was not below 80%.
`C[C@@H](c1ncnn1-c1cc(C(N)=O)ncn1)N(C)c1ncnc2c(Cl)cc(I)cc12` [Compound P49, 6-[5-[(1S)-1-[(8-chloro-6-iodo-quinazolin-4-yl)-methyl-amino]ethyl]-1,2,4-triazol-1-yl]pyrimidine-4-carboxamide]: the percent control (mortality, anti-feedant effect or growth inhibition) at 200 ppm with Chilo suppressalis and in the test with Spodoptera littoralis was not below 80% in each case. The percent effect (mortality or growth inhibition) at 200 ppm with Diabrotica balteata and with Plutella xylostella was not below 80% each time. Further, the mortality at 12 ppm with Myzus persicae is not below 80%.
Consider `C[C@H](Nc1ncnc2c(C(F)(F)F)cc(Cl)cc12)c1ncnn1-c1cc(C(=O)NC2CSC2)ncn1` [Compound P25, 6-[5-[(1S)-1-[[6-chloro-8-(trifluoromethyl)quinazolin-4-yl]amino]ethyl]-1,2,4-triazol-1-yl]-N-(thietan-3-yl)pyrimidine-4-carboxamide], for which the percent control (mortality, anti-feedant effect or growth inhibition) at 200 ppm in the test on Chilo suppressalis and in the test on Spodoptera littoralis was not below 80% in each case. Moreover, the percent effect (mortality or growth inhibition) at 200 ppm in the test on Diabrotica balteata and in the test on Plutella xylostella was not below 80% each time. For the same compound, in the test on Myzus persicae, the mortality at 12 ppm is not below 80%.
For `CNC(=O)c1cc(-n2ncnc2[C@H](C)N(C)c2ncnc3c(Cl)cc(I)cc23)ncn1` [Compound P34, 6-[5-[(1S)-1-[(8-chloro-6-iodo-quinazolin-4-yl)-methyl-amino]ethyl]-1,2,4-triazol-1-yl]-N-methyl-pyrimidine-4-carboxamide], the percent control (mortality, anti-feedant effect or growth inhibition) at 200 ppm in the test on Chilo suppressalis and with Spodoptera littoralis was not below 80% each time. The percent effect (mortality or growth inhibition) at 200 ppm in the test with Diabrotica balteata and with Plutella xylostella was not below 80% each time. The same compound had a mortality at 12 ppm in the test on Myzus persicae not below 80%.
For the compound `C[C@H](Nc1ncnc2c(I)cc(Cl)cc12)c1ncnn1-c1cnc(C(=O)NCC#N)cn1` [Compound P73, 5-[5-[(1S)-1-[(6-chloro-8-iodo-quinazolin-4-yl)amino]ethyl]-1,2,4-triazol-1-yl]-N-(cyanomethyl)pyrazine-2-carboxamide], the percent control (mortality, anti-feedant effect or growth inhibition) at 200 ppm in the test on Chilo suppressalis and in the test with Spodoptera littoralis was not below 80% throughout. In the test on Myzus persicae, this compound came in with a mortality at 12 ppm not below 80%. The percent effect (mortality or growth inhibition) at 200 ppm with Plutella xylostella is not below 80%.
`C[C@H](Nc1ncnc2c(Cl)cc(I)cc12)c1ncnn1-c1ncc(C(N)=O)s1` [Compound P37, 2-[5-[(1S)-1-[(8-chloro-6-iodo-quinazolin-4-yl)amino]ethyl]-1,2,4-triazol-1-yl]thiazole-5-carboxamide]: the percent control (mortality, anti-feedant effect or growth inhibition) at 200 ppm in the test with Chilo suppressalis and in the test with Spodoptera littoralis was not below 80% throughout. In addition, the percent effect (mortality or growth inhibition) at 200 ppm in the test on Diabrotica balteata and in the test on Plutella xylostella was not below 80% in each case. Besides, the mortality at 12 ppm in the test on Myzus persicae is not below 80%. In the test with Spodoptera littoralis (50 ppm), this compound had a mortality at 50 ppm of 100%.
In the case of `C[C@H](Nc1ncnc2c(C(F)(F)F)cc(Cl)cc12)c1ncnn1-c1cc(C(=O)NC(C)(C#N)C2CC2)ncn1` (stereo partly drawn) [Compound P42, 6-[5-[(1S)-1-[[6-chloro-8-(trifluoromethyl)quinazolin-4-yl]amino]ethyl]-1,2,4-triazol-1-yl]-N-(1-cyano-1-cyclopropyl-ethyl)pyrimidine-4-carboxamide], the percent control (mortality, anti-feedant effect or growth inhibition) at 200 ppm in the test on Chilo suppressalis and with Spodoptera littoralis was not below 80% throughout. Besides, the percent effect (mortality or growth inhibition) at 200 ppm in the test on Diabrotica balteata and in the test on Plutella xylostella was not below 80% throughout.

The values above are taken from patent US20260132125A1, “PESTICIDALLY ACTIVE FUSED BICYCLIC HETEROAROMATIC COMPOUNDS” (priority 2022, published 2026).
